Here are results for one molecule from patent US6632843B1, “Treatment of bruxism” (priority 2000, dated 2003).

For data set [1] the following is noted: after application. The text has this:
Cyclobenzaprine is a 5-HT2 receptor antagonist and its muscle relaxant effect is due to inhibition of serotonergic neurons.

For data set [2] the following is noted: taken orally; cited from earlier work.

Regarding `CN(C)CCC=C1c2ccccc2C=Cc2ccccc21` [cyclobenzaprine, Cyclobenzaprine], the “time to clinical improvement” value in data set [1] was “as early as the first 20 minutes”. Also, in data set [2], the half life result is recorded as “as long as one to three days” and the plasma protein binding entry is “highly bound to plasma proteins”.
